Reference: BindingDB's records for doi:10.7270/Q2JQ0ZGP (Nmmlsc, 2010)

Target: 60S ribosomal protein L19-A (Saccharomyces cerevisiae (strain ATCC 204508 / S288c), UniProt P0CX82)
Experiment: Dose response follow up of MLPCN hits, RPL19A GFP fusion, TOR pathway (AID 2740)

Chain of 60S ribosomal protein L19-A (P0CX82 whole entry, the tested form may be a part): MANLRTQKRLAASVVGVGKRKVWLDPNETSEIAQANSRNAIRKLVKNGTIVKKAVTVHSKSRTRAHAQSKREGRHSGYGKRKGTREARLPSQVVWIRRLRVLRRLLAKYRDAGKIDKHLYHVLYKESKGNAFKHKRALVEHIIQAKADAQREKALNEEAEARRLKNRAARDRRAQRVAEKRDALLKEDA

Row | SMILES | EC50
1 | O=C1NC(=S)NC(=O)C1=Cc1ccc2c(c1)CCN2CCCCl [5-[[1-(3-chloropropyl)-2,3-dihydroindol-5-yl]methylidene]-2-sulfanylidene-1,3-diazinane-4,6-dione] | > 33 µM
2 | CS(=O)(=O)c1nc(-c2cccs2)cc(C(F)(F)F)n1 [MLS000044645] | > 33 µM
